Measurements as given in patent US12263181B2, “Phospholipid compositions” (MACHAVERT PHARMACEUTICALS LLC, priority 2016, dated 2025).

Experiments:
[1] = target: T1, ABL1 M351T (Homo sapiens, UniProt P00519, M351T); assay: LANTHASCREEN Eu Kinase Binding Assay; details: 10 μM solutions, two independent measurements
T1 construct: purchased Life Technologies
Method: (§1) Measurement of inhibition of various kinases was also performed by binding a tracer to a kinase and the addition of Europium labeled anti-tag antibodies. When bound to the same kinase, the tracer and Europium interact through FRET and fluoresce. Binding of the tracer and antibody to a kinase results in a high degree of FRET, whereas displacement of the tracer with a kinase inhibitor results in a loss of FRET. This method of measurement removes the cleavage step necessary in the above FRET measurement.
(§2) The kinase inhibitory activity of various 10 μM solutions of various fractions was measured (LANTHASCREEN Eu Kinase Binding Assay Profiling Service available from Life Technologies). In these measurements, greater percent displacement indicates greater kinase inhibition. […] The average % displacement is representative of two independent measurements.

[2] = target: T2, KIT Y823D (Homo sapiens, UniProt P10721, Y823D); assay: LANTHASCREEN Eu Kinase Binding Assay; details: 10 μM solutions, two independent measurements
T2 construct: purchased Life Technologies
Method: as §1, §2

[3] = target: T3, WEE1 (Homo sapiens, UniProt P30291); assay: LANTHASCREEN Eu Kinase Binding Assay; details: 10 μM solutions, two independent measurements
T3 construct: purchased Life Technologies
Method: as §1, §2

[4] = target: T4, KIT N822K (Homo sapiens, UniProt P10721, N822K); assay: LANTHASCREEN Eu Kinase Binding Assay; details: 10 μM solutions, two independent measurements
T4 construct: purchased Life Technologies
Method: as §1, §2

[5] = target: T5, KIT D816H (Homo sapiens, UniProt P10721, D816H); assay: LANTHASCREEN Eu Kinase Binding Assay; details: 10 μM solutions, two independent measurements
T5 construct: purchased Life Technologies
Method: as §1, §2

[6] = target: T6, ALK C1156Y (Homo sapiens, UniProt Q9UM73, C1156Y); assay: LANTHASCREEN Eu Kinase Binding Assay; details: 10 μM solutions, two independent measurements
T6 construct: purchased Life Technologies
Method: as §1, §2

[7] = target: T7, EGFR (ErbB1) d746-750 (Homo sapiens, UniProt P00533, DEL746-750); assay: LANTHASCREEN Eu Kinase Binding Assay; details: 10 μM solutions, two independent measurements
T7 construct: purchased Life Technologies
Method: as §1, §2

[8] = target: T8, TTK (Homo sapiens, UniProt P33981); assay: LANTHASCREEN Eu Kinase Binding Assay; details: 10 μM solutions, two independent measurements
T8 construct: purchased Life Technologies
T8 sequence (P33981 1-857): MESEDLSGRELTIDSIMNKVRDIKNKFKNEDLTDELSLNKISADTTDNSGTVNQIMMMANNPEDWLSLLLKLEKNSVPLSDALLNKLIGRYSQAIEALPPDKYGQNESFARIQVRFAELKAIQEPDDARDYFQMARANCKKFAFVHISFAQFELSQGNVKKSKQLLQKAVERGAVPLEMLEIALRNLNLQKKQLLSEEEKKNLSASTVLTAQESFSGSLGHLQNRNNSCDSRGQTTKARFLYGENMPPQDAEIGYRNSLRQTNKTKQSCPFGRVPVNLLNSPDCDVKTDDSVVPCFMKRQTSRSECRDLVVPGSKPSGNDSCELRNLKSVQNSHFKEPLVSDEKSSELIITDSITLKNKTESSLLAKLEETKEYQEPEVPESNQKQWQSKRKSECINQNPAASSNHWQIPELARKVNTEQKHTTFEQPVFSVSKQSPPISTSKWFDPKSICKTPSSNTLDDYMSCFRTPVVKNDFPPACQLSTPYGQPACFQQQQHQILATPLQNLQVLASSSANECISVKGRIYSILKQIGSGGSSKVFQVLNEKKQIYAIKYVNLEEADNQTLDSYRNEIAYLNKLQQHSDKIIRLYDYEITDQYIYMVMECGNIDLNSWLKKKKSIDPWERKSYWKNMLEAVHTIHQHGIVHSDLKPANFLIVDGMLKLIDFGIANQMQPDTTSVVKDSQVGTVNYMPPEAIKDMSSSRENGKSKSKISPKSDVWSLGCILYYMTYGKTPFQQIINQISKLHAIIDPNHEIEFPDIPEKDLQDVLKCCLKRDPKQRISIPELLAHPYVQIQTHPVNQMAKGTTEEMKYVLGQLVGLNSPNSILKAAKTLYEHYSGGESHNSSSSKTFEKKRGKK
Method: as §1, §2

[9] = target: T9, various kinases (Homo sapiens, UniProt Q8TF76); assay: FRET-peptide kinase inhibition (SELECTSCREEN Kinase Profiling Service); format: biochemical; details: kinase GSG2 (Haspin); 10 μM solution; ATP at Km
T9 construct: purchased Life Technologies
T9 sequence (Q8TF76 1-798): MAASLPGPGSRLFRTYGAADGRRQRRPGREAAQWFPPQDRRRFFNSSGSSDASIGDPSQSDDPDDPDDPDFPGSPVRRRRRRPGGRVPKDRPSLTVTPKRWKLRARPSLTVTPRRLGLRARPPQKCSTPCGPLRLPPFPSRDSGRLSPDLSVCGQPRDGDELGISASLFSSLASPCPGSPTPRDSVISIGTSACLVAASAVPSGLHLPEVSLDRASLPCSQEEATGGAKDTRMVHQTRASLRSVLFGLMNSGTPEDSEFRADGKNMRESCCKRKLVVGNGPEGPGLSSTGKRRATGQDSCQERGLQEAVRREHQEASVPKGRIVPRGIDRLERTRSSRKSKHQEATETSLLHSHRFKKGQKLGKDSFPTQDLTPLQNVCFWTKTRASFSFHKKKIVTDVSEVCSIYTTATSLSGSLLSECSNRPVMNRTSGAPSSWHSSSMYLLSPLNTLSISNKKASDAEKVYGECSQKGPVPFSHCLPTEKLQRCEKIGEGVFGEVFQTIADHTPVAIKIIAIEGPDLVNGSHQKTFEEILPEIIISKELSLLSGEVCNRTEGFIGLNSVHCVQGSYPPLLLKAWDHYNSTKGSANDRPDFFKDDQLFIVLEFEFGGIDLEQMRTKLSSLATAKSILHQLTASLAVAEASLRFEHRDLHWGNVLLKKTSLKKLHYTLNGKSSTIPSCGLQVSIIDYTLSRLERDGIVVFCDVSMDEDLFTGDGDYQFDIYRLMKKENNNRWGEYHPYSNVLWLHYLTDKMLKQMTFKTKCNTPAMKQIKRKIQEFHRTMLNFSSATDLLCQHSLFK
Method: (§3) Inhibition of various kinases was measured using fluorescence resonance energy transfer (FRET) analysis. Briefly, a kinase is used to transfer the γ-phosphate of ATP to a single tyrosine, serine, or threonine residue in a synthetic FRET-peptide in the presence of each tested fraction. A kinase inhibitor will prevent phosphorylation. FRET-peptides comprise a donor fluorophore and an acceptor fluorophore, where the acceptor fluorophore will only undergo fluorescence from the excitation wavelength of the donor fluorophore due to resonant energy transfer through the peptide. A development reagent is used to cleave the un-phosphorylated FRET-peptides. An uncleaved FRET-peptide (i.e., phosphorylated peptide) will therefore undergo measureable FRET of both acceptor and donor and be indicative of kinase inhibition. […] Because phosphorylation of FRET-peptides suppresses cleavage by the development reagent, calculation of the ratio of donor emission to acceptor emission after excitation of the donor fluorophore at approximately 400 nm is used to quantitate reaction progress. Low ratios indicate the FRET-peptide is phosphorylated (i.e., little kinase inhibition) and high ratios […] (i.e., kinase inhibition). The percent phosphorylation can therefore be calculated from the emission ratio based on controls for the maximum and minimum phosphorylation. The percent inhibition can be calculated based on the percent phosphorylation of a sample with each fraction as compared to the percent phosphorylation without each fraction.
(§4) The kinase inhibitory activity of various 10 μM solutions of various fractions was measured using the SELECTSCREEN Kinase Profiling Service available from Life Technologies. Unless otherwise indicated, the concentration of ATP in each well is the Michaelis-Menten constant (Km value-the concentration of ATP when the phosphorylation reaction velocity is equal half of the maximal velocity for the reaction). […] Z′ is a measure of statistical effect size to assess the quality of the assay. Z′>0.5 is indicative measurement separated from the background and a reliable assay result. The average % inhibition is representative of two independent measurements.

[10] = target: T10, various kinases (Homo sapiens, UniProt O14965); assay: as above; format: biochemical; details: kinase AURKA (Aurora A); 10 μM solution; ATP at Km
T10 construct: purchased Life Technologies
T10 sequence (O14965 1-403): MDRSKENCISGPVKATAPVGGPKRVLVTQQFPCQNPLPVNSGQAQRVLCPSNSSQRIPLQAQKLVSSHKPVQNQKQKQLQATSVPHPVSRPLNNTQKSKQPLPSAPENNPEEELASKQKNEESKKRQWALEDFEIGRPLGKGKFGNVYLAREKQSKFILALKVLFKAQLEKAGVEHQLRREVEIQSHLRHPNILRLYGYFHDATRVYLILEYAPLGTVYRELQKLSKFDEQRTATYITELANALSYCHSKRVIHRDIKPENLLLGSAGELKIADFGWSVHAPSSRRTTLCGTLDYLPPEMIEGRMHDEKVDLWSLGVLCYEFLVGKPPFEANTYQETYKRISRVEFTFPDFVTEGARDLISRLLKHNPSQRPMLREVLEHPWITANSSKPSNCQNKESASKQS
Method: as §3, §4

[11] = target: T11, various kinases (Homo sapiens, UniProt Q96GD4); assay: as above; format: biochemical; details: kinase AURKB (Aurora B); 10 μM solution; ATP at Km
T11 construct: purchased Life Technologies
Method: as §3, §4

[12] = target: T12, SPHK1 kinase (Homo sapiens, UniProt Q9NYA1); assay: as above; format: biochemical; details: 10 μM solution, ATP at Km
T12 construct: purchased Life Technologies
Method: as §3, §4

[13] = target: T13, mTOR kinase (Homo sapiens, UniProt P42345); assay: as above; format: biochemical; details: kinase FRAP1 (mTOR); 10 μM solution; ATP at Km
T13 construct: purchased Life Technologies
Method: as §3, §4

[14] = target: T14, various kinases (Homo sapiens, UniProt P48736); assay: as above; format: biochemical; details: kinase PIK3CG (p110 gamma); 10 μM solution; ATP at Km
T14 construct: purchased Life Technologies
Method: as §3, §4

[15] = target: T15, various kinases (Homo sapiens, UniProt P41279); assay: as above; format: biochemical; details: kinase MAP3K8 (COT); 10 μM solution; ATP concentration of 100 μM
T15 construct: purchased Life Technologies
Method: as §3, §4

[16] = system: human pancreatic carcinoma cell line (Capan-2); assay: In vivo tumor growth inhibition, Capan-2 xenograft in nude mice; details: oral, 0.1 mL of a 30% (w/w) solution in sunflower oil once a day for 42 days
Method: In vivo measurements of tumor growth inhibition in mice were conducted to determine efficacy of BAP(+), BAP(−), and fractions thereof. A human pancreatic carcinoma cell line (Capan-2 available from European Collection of Cell Cultures, Salisbury UK) was cultivated at 37° C. in a humidified 5% CO2/95% air atmosphere using high glucose D-MEM medium supplemented with 20% fetal bovine serum, 2% penicillin/streptomycin and 1.25% L-glutamine. Before application, cells were harvested by trypsinisation for 30 minutes. Harvested Capan-2 cells were administered subcutaneously to each mouse as 1×10^7 cells in a mixture with a basement membrane preparation (BD MATRIGEL, available from I.T.A.-Interact, Prague CZ). Administration was in the rear right flank of Hsd:athymic nude-Fox n1nu mice (available from Anlab, Prague CZ). […]
Table 12 gives the percentage of tumor weight growth inhibition (% WGI) as compared to the control for various BAP mixtures including BAP(−), BAP(+), pooled fractions F1-F4, F5, a fraction comprising a pooled collection of the F5 sub-fractions enriched in more PCs comprising saturated fatty acids acyl residues (“F5A”), a fraction which comprising a pooled collection of F5 sub-fractions enriched in more PCs comprising unsaturated fatty acid acyl residues (“F5B”), and a fraction of BAP(+) possibly enriched in LPC's (“F5C”). Glycerophosphocholine (GPC) was also evaluated. […]

T11 sequence (Q96GD4 whole entry): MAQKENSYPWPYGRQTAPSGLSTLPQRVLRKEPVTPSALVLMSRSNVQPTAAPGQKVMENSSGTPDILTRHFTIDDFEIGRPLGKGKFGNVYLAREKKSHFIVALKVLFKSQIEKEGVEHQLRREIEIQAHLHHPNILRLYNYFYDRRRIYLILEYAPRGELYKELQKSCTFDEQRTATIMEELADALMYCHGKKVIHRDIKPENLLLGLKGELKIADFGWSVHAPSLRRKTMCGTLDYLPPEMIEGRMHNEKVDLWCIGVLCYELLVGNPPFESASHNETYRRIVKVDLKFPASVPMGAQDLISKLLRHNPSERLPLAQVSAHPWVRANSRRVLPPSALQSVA
T6 sequence (Q9UM73 19-1620 C1156Y): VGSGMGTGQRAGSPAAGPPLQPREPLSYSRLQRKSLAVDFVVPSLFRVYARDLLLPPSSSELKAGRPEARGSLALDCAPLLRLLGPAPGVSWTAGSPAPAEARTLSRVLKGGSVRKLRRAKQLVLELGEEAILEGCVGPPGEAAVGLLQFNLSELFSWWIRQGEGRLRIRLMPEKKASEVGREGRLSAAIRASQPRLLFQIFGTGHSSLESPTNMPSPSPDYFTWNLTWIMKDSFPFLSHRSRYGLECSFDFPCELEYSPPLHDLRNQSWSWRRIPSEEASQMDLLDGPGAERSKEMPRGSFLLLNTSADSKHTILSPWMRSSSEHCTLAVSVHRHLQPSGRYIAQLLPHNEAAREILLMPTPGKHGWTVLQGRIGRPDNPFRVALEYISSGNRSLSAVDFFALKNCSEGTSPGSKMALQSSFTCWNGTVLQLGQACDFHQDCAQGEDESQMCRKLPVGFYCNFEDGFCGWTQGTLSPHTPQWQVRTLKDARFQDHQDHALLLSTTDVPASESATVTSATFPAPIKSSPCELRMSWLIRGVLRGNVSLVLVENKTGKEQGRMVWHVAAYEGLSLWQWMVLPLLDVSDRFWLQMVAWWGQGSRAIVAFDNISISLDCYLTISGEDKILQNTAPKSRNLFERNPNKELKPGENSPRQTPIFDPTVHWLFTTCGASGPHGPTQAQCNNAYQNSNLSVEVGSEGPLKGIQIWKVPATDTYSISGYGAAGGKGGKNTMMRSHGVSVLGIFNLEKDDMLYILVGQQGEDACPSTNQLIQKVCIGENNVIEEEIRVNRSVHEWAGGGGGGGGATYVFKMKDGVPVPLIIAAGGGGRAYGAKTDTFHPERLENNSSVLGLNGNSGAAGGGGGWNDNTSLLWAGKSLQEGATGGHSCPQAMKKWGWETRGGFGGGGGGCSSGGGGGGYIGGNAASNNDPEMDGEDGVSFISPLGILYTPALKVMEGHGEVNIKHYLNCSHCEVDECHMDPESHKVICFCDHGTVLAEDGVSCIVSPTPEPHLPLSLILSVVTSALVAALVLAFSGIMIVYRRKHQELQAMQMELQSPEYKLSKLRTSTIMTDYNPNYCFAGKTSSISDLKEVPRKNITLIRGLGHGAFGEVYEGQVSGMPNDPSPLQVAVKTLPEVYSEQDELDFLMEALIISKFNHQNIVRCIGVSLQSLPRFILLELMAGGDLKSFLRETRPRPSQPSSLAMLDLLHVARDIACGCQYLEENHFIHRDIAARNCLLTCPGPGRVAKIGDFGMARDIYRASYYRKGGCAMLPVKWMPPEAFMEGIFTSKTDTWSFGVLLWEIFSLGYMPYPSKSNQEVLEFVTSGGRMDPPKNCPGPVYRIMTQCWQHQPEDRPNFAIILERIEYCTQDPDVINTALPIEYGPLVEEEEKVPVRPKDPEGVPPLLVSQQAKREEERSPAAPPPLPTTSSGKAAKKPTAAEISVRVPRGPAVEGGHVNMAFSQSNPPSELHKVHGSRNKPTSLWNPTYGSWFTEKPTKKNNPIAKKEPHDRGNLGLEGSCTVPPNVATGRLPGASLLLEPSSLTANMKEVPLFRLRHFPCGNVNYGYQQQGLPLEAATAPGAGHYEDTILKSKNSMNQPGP
T15 sequence (P41279 whole entry): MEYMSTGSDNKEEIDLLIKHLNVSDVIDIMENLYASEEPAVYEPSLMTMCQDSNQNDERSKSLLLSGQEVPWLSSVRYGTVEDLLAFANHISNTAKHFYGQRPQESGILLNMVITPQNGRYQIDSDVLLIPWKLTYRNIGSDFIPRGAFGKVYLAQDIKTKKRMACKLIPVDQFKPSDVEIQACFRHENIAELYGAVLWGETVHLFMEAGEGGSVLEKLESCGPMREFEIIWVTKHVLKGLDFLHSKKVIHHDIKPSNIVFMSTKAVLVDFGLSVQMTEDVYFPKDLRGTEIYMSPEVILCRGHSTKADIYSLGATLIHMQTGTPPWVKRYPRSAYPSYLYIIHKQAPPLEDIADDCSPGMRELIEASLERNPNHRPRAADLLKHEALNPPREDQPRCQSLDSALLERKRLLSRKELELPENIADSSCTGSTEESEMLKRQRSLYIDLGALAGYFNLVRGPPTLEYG
T4 sequence (P10721 26-976 N822K): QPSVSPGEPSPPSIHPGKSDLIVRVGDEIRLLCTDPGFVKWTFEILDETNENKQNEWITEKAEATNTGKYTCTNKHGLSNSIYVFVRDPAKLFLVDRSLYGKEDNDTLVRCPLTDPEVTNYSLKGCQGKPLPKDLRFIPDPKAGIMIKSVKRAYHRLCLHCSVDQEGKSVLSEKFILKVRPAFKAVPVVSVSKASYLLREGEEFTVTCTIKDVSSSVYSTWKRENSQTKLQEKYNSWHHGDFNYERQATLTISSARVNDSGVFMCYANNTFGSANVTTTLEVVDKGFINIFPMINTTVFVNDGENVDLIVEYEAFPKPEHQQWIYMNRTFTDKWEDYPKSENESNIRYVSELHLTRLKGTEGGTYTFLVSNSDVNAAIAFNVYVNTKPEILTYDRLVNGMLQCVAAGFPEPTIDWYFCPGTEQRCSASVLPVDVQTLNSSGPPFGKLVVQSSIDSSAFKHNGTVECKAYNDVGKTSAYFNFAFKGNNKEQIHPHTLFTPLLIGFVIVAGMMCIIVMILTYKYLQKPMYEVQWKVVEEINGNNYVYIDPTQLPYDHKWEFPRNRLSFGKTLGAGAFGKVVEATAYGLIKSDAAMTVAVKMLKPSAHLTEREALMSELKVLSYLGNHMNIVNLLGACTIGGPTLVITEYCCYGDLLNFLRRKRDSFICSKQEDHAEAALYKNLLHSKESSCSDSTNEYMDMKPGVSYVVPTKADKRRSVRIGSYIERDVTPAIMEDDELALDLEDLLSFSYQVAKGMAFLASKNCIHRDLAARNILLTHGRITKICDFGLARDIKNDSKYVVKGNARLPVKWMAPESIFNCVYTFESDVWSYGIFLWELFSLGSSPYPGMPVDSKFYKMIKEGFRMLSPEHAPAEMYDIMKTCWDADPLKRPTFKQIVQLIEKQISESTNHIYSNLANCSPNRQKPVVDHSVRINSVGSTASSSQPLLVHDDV
T7 sequence (P00533 with tags, fused parts or gaps DEL746-750 limits assumed): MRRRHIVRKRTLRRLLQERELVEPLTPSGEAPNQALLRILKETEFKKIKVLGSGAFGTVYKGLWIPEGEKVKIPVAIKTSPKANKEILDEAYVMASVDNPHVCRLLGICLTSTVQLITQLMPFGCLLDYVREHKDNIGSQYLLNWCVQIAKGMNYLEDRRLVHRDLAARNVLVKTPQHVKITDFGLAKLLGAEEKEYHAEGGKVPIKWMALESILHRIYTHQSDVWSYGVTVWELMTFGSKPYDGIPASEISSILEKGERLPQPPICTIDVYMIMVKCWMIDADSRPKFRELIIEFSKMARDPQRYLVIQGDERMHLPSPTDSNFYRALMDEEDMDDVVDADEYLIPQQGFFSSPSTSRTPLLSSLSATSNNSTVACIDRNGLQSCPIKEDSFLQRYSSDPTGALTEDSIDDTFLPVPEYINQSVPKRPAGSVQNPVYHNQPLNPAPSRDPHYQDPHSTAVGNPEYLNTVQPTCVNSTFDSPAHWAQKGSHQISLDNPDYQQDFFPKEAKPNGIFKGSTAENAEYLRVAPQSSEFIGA
T3 sequence (P30291 whole entry): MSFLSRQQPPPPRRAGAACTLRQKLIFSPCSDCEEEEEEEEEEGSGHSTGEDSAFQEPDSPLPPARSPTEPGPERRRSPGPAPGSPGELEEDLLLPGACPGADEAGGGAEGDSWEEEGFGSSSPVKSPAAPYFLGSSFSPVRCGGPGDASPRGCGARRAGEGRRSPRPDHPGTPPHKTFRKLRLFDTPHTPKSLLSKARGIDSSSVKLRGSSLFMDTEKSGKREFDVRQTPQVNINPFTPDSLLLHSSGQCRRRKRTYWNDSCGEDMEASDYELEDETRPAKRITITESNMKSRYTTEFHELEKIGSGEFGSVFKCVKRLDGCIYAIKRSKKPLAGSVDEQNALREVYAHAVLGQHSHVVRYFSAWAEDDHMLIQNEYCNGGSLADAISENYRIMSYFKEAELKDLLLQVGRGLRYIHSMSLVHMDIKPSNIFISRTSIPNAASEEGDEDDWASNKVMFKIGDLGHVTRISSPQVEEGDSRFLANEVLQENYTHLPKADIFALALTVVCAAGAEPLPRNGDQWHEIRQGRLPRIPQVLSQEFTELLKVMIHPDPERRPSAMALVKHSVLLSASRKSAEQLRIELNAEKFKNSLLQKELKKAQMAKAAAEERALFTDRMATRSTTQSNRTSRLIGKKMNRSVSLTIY
T12 sequence (Q9NYA1 whole entry): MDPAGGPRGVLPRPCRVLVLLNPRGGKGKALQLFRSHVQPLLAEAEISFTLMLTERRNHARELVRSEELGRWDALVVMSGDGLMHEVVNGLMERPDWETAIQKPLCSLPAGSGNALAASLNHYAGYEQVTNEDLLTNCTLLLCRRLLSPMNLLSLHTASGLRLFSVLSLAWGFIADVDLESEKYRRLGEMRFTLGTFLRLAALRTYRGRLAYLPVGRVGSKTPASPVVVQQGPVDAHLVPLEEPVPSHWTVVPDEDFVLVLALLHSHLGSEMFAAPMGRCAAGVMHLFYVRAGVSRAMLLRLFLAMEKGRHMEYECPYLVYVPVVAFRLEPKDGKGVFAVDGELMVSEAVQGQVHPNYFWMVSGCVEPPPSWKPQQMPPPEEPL
T2 sequence (P10721 26-976 Y823D): as the sequence (P10721 26-976 N822K) above, with K797N, Y798D counted along it
T5 sequence (P10721 26-976 D816H): as the sequence (P10721 26-976 N822K) above, with D791H, K797N counted along it

Average % Displacement [1]: 4%
Average % Displacement [2]: 2%
Average % Displacement [3]: 5%
Average % Displacement [4]: −1%
Average % Displacement [5]: 1%
Average % Displacement [6]: 4%
Average % Displacement [7]: −1%
Average % Displacement [8]: 24%
Average % Inhibition [9]: 14%
Average % Inhibition [10]: 22%
Average % Inhibition [11]: 13%
Average % Inhibition [12]: −5%
Average % Inhibition [13]: −1%
Average % Inhibition [14]: 2%
Average % Inhibition [15]: 7%
Compound: C[N+](C)(C)CCOP(=O)([O-])OC[C@H](O)CO [GPC, glycerophosphocholine]
% WGI (percentage of tumor weight growth inhibition as compared to the control) [16]: −41.9%
